# From ChEMBL document CHEMBL1123324, “Basically substituted ellipticine analogues as potential antitumor agents” (1986)
# Activity calls are given as the source filed them. The calls are words filed in the database; no cut-off is given here.
# Legend:
# Nucleic Acid = experiment: Concentration at which the fluorescence of an ethidium-DNA complex was reduced by 50%; type: nucleic-acid assay
# L1210 [1] = experiment: Inhibitory effect against L1210 leukemia in tissue culture; type: functional; details: Mus musculus, read-out: ID50 (the source's name)
# HCT-8 [2] = experiment: Inhibitory effect against HCT8 Human colon adenocarcinoma; type: functional; details: read-out: ID50 (the source's name)
# HCT-8 [3] = experiment: Inhibitory effect against HCT8 Human colon adenocarcinoma; inactive; type: functional, cell-based
# L1210 [4] = experiment: Inhibitory effect against L1210 leukemia in tissue culture; Inactive; type: functional, cell-based; details: Mus musculus
SMILES,C50 (Nucleic Acid) [nM],IC50 (L1210 [1]) [nM],IC50 (HCT-8 [2]) [nM],ID50 (HCT-8 [3]),ID50 (L1210 [4])
CCN(CC)CCn1c2ccccc2c2c(C)c3cnccc3c(C)c21,106,190,80,–,–
Cc1c2cc[n+](C)cc2c(C)c2c1[nH]c1ccccc12,–,600,–,inactive,–
Cc1c2cnccc2c(C)c2c1c1ccccc1n2CCN1CCCCC1,122,170,82,–,–
CCN(CC)C(=O)Cn1c2ccccc2c2c(C)c3cnccc3c(C)c21,–,–,–,–,inactive
CCN(CC)CC[n+]1ccc2c(C)c3[nH]c4ccccc4c3c(C)c2c1,159,41,500,–,–
Cc1c2cnccc2c(C)c2c1c1ccccc1n2CCN1CCOCC1,440,320,100,–,–
Cc1c2ccncc2c(C)c2c1[nH]c1ccccc12 [ELLIPTECINE],1040,100,260,–,–
Cc1c2cnccc2c(C)c2c1c1ccccc1n2CCCN(C)C,–,110,390,–,–
Cc1c2cnccc2c(C)c2c1c1ccccc1n2C,454,430,–,–,–
